These results are taken from patent US8445501B2, “Substituted 7-carboxamido-pyrrolo[3,2-d]pyrimidines” (Takeda GmbH, priority 2008, dated 2013).

This experiment addresses T1, human PDE5 (Homo sapiens, UniProt O76074).
T1 construct: from tissue; host or cells: platelets from fresh blood of human donors (lysate, 10,000 g supernatant)
Kind of experiment: Inhibition of the type 5 phosphodiesterase (PDE5) activity, modified SPA test with platelet lysate. Format: biochemical. The note with it: PDE5 from human platelet lysate, 0.5 μM cGMP. A digest of the protocol: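 SPA-based cGMP hydrolysis, [3H]cGMP tracer in 0.5 μM cGMP, by sonicated human platelet lysate; motapizone (1 μM) and a PDE2 inhibitor (10 nM) block other PDEs. Reaction 15 min at 37 °C after 5 min preincubation, quenched with beads containing IBMX. IC50 from concentration-effect curves.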
As for `O=C(N[C@H]1CC[C@H](NC(=O)C2(O)CC2)CC1)c1c[nH]c2c(-c3ccc(F)cc3OCC3CC3)ncnc12` [Example 219, trans-4-(2-Cyclopropylmethoxy-4-fluoro-phenyl)-5H-pyrrolo[3,2-d]pyrimidine-7-carboxylic acid {4-[(1-hydroxy-cyclopropanecarbonyl)-amino]-cyclohexyl}-amide], half-maximal inhibition (IC50) was put at 2 nM.
Then `O=C(NC1CCN(C(=O)CO)CC1)c1c[nH]c2c(-c3cc(F)ccc3OCC3CC3)ncnc12` [Example 220, 4-(2-Cyclopropylmethoxy-5-fluoro-phenyl)-5H-pyrrolo[3,2-d]pyrimidine-7-carboxylic acid [1-(2-hydroxy-acetyl)piperidin-4-yl]-amide], with 7.41 nM.
For the compound `C[C@H](O)C(=O)N1CCC(NC(=O)c2c[nH]c3c(-c4cc(F)ccc4OCC4CC4)ncnc23)CC1` [Example 221, 4-(2-Cyclopropylmethoxy-5-fluoro-phenyl)-5H-pyrrolo[3,2-d]pyrimidine-7-carboxylic acid [1-((S)-2-hydroxy-propionyl)piperidin-4-yl]-amide], the IC50 (commonly the midpoint of a concentration-inhibition curve) was 6.46 nM.
In the case of `O=C(CO)N[C@H]1CC[C@H](NC(=O)c2c[nH]c3c(-c4cc(F)ccc4OCC4CC4)ncnc23)CC1` [Example 222, trans-4-(2-Cyclopropylmethoxy-5-fluoro-phenyl)-5H-pyrrolo[3,2-d]pyrimidine-7-carboxylic acid [4-(2-hydroxy-acetylamino)-cyclohexyl]-amide] it was 1.91 nM; in that of `O=C(CO)N[C@H]1CC[C@H](NC(=O)c2c[nH]c3c(-c4ccccc4OCC4CC4)ncnc23)CC1` [Example 224, trans-4-(2-Cyclopropylmethoxy-phenyl)-5H-pyrrolo[3,2-d]pyrimidine-7-carboxylic acid [4-(2-hydroxy-acetylamino)-cyclohexyl]-amide], 6.92 nM.
Turning to `C[C@H](O)C(=O)N[C@H]1CC[C@H](NC(=O)c2c[nH]c3c(-c4ccccc4OCC4CC4)ncnc23)CC1` [Example 225, trans-4-(2-Cyclopropylmethoxy-phenyl)-5H-pyrrolo[3,2-d]pyrimidine-7-carboxylic acid [4-((S)-2-hydroxy-propionylamino)-cyclohexyl]-amide], the IC50 was 7.08 nM.
In the case of `O=C(N[C@H]1CC[C@H](NC(=O)C2(O)CC2)CC1)c1c[nH]c2c(-c3ccccc3OCC3CC3)ncnc12` [Example 226, trans-4-(2-Cyclopropylmethoxy-phenyl)-5H-pyrrolo[3,2-d]pyrimidine-7-carboxylic acid {4-[(1-hydroxy-cyclopropanecarbonyl)-amino]-cyclohexyl}-amide] it was 3.39 nM; in that of `C[C@H](O)C(=O)N1CCC(NC(=O)c2c[nH]c3c(-c4ccccc4OCC4CC4)ncnc23)CC1` [Example 227, 4-(2-Cyclopropylmethoxy-phenyl)-5H-pyrrolo[3,2-d]pyrimidine-7-carboxylic acid [1-((S)-2-hydroxy-propionyl)-piperidin-4-yl]-amide], 14.1 nM.
In the case of `COc1cc(-c2ncnc3c(C(=O)NC4CCN(C(=O)[C@H](C)O)CC4)c[nH]c23)c(OCC2CC2)cc1F` [Example 228, 4-(2-Cyclopropylmethoxy-4-fluoro-5-methoxy-phenyl)-5H-pyrrolo[3,2-d]pyrimidine-7-carboxylic acid [1-((S)-2-hydroxy-propionyl)-piperidin-4-yl]-amide] it was 0.162 nM; in that of `COc1cc(-c2ncnc3c(C(=O)N[C@@H]4CCCN(C(=O)CO)C4)c[nH]c23)c(OCC2CC2)cc1F` [Example 229, 4-(2-Cyclopropylmethoxy-4-fluoro-5-methoxy-phenyl)-5H-pyrrolo[3,2-d]pyrimidine-7-carboxylic acid [(R)-1-(2-hydroxy-acetyl)piperidin-3-yl]-amide], 0.2 nM; in that of `COc1cc(-c2ncnc3c(C(=O)N[C@@H]4CCCN(C(=O)[C@H](C)O)C4)c[nH]c23)c(OCC2CC2)cc1F` [Example 230, 4-(2-Cyclopropylmethoxy-4-fluoro-5-methoxy-phenyl)-5H-pyrrolo[3,2-d]pyrimidine-7-carboxylic acid [(R)-1-((S)-2-hydroxy-propionyl)-piperidin-3-yl]-amide], 0.24 nM.
In the case of `COc1cc(-c2ncnc3c(C(=O)N[C@@H]4CCN(C(=O)CO)C4)c[nH]c23)c(OCC2CC2)cc1F` [Example 231, 4-(2-Cyclopropylmethoxy-4-fluoro-5-methoxy-phenyl)-5H-pyrrolo[3,2-d]pyrimidine-7-carboxylic acid [(R)-1-(2-hydroxy-acetyl)-pyrrolidin-3-yl]amide] it was 0.692 nM.
In turn, `COc1cc(-c2ncnc3c(C(=O)N[C@@H]4CCN(C(=O)[C@H](C)O)C4)c[nH]c23)c(OCC2CC2)cc1F` [Example 232, 4-(2-Cyclopropylmethoxy-4-fluoro-5-methoxy-phenyl)-5H-pyrrolo[3,2-d]pyrimidine-7-carboxylic acid [(R)-1-((S)-2-hydroxy-propionyl)-pyrrolidin-3-yl]amide] gave an IC50 of 0.355 nM.
The compound `COc1cc(OCC2CC2)c(-c2ncnc3c(C(=O)N[C@H]4CC[C@H](NC(=O)CO)CC4)c[nH]c23)cc1F` [Example 233, trans-4-(2-Cyclopropylmethoxy-5-fluoro-4-methoxy-phenyl)-5H-pyrrolo[3,2-d]pyrimidine-7-carboxylic acid [4-(2-hydroxy-acetylamino)-cyclohexyl]-amide] gave an IC50 of 0.759 nM.
The compound `COc1cc(OCC2CC2)c(-c2ncnc3c(C(=O)N[C@H]4CC[C@H](NC(=O)[C@H](C)O)CC4)c[nH]c23)cc1F` [Example 234, trans-4-(2-Cyclopropylmethoxy-5-fluoro-4-methoxy-phenyl)-5H-pyrrolo[3,2-d]pyrimidine-7-carboxylic acid [4-((S)-2-hydroxy-propionylamino)-cyclohexyl]-amide] had an IC50 of 0.977 nM.
Then `COc1cc(OCC2CC2)c(-c2ncnc3c(C(=O)N[C@H]4CC[C@H](NC(=O)C5(O)CC5)CC4)c[nH]c23)cc1F` [Example 235, trans-4-(2-Cyclopropylmethoxy-5-fluoro-4-methoxy-phenyl)-5H-pyrrolo[3,2-d]pyrimidine-7-carboxylic acid {4-[(1-hydroxy-cyclopropanecarbonyl)-amino]-cyclohexyl}-amide], with 0.457 nM; and `COc1cc(OCC2CC2)c(-c2ncnc3c(C(=O)NC4CCN(C(=O)CO)CC4)c[nH]c23)cc1F` [Example 236, 4-(2-Cyclopropylmethoxy-5-fluoro-4-methoxy-phenyl)-5H-pyrrolo[3,2-d]pyrimidine-7-carboxylic acid [1-(2-hydroxy-ethanoyl)-piperidin-4-yl]amide], with 1.66 nM; and `COc1cc(OCC2CC2)c(-c2ncnc3c(C(=O)NC4CCN(C(=O)[C@H](C)O)CC4)c[nH]c23)cc1F` [Example 237, 4-(2-Cyclopropylmethoxy-5-fluoro-4-methoxy-phenyl)-5H-pyrrolo[3,2-d]pyrimidine-7-carboxylic acid [1-((S)-2-hydroxy-propanoyl)piperidin-4-yl]-amide], with 0.617 nM.
Then `COc1cc(OCC2CC2)c(-c2ncnc3c(C(=O)NC4CCN(C(=O)C5(O)CC5)CC4)c[nH]c23)cc1F` [Example 238, 4-(2-Cyclopropylmethoxy-5-fluoro-4-methoxy-phenyl)-5H-pyrrolo[3,2-d]pyrimidine-7-carboxylic acid {1-[1-(1-hydroxy-cyclopropyl)methanoyl]-piperidin-4-yl}-amide], with 0.316 nM.
In the case of `COc1cc(OCC2CC2)c(-c2ncnc3c(C(=O)N[C@H]4CCCN(C(=O)[C@H](C)O)C4)c[nH]c23)cc1F` [Example 239, 4-(2-cyclopropylmethoxy-5-fluoro-4-methoxy-phenyl)-5H-pyrrolo[3,2-d]pyrimidine-7-carboxylic acid [(S)-1-((S)-2-hydroxy-propanoyl)piperidin-3-yl]-amide] it was 2.51 nM; in that of `COc1cc(OCC2CC2)c(-c2ncnc3c(C(=O)N[C@@H]4CCCN(C(=O)[C@H](C)O)C4)c[nH]c23)cc1F` [Example 240, 4-(2-Cyclopropylmethoxy-5-fluoro-4-methoxy-phenyl)-5H-pyrrolo[3,2-d]pyrimidine-7-carboxylic acid [(R)-1-((S)-2-hydroxy-propanoyl)piperidin-3-yl]-amide], 0.501 nM.
For `COc1cc(OCC2CC2)c(-c2ncnc3c(C(=O)N[C@@H]4CCN(C(=O)CO)C4)c[nH]c23)cc1F` [Example 241, 4-(2-Cyclopropylmethoxy-5-fluoro-4-methoxy-phenyl)-5H-pyrrolo[3,2-d]pyrimidine-7-carboxylic acid [(R)-1-(2-hydroxy-acetyl)pyrrolidin-3-yl]-amide], the IC50 was 1.35 nM.
In the case of `COc1cc(OCC2CC2)c(-c2ncnc3c(C(=O)N[C@@H]4CCN(C(=O)[C@H](C)O)C4)c[nH]c23)cc1F` [Example 242, 4-(2-Cyclopropylmethoxy-5-fluoro-4-methoxy-phenyl)-5H-pyrrolo[3,2-d]pyrimidine-7-carboxylic acid [(R)-1-((S)-2-hydroxy-propionyl)pyrrolidin-3-yl]-amide] it was 0.977 nM.
Then `Cc1ccc(OCC2CC2)c(-c2ncnc3c(C(=O)N[C@H]4CC[C@H](NC(=O)CO)CC4)c[nH]c23)c1` [Example 243, trans-4-(2-Cyclopropylmethoxy-5-methyl-phenyl)-5H-pyrrolo[3,2-d]pyrimidine-7-carboxylic acid [4-(2-hydroxy-acetylamino)-cyclohexyl]-amide], with 2.29 nM; and `Cc1ccc(OCC2CC2)c(-c2ncnc3c(C(=O)N[C@H]4CC[C@H](NC(=O)[C@H](C)O)CC4)c[nH]c23)c1` [Example 244, trans-4-(2-Cyclopropylmethoxy-5-methyl-phenyl)-5H-pyrrolo[3,2-d]pyrimidine-7-carboxylic acid [4-((S)-2-hydroxy-propionylamino)-cyclohexyl]-amide], with 1.95 nM.
